Measurements as given in article PMC6286365 (Scientific Reports, 2018).
pIC50: −log10 of the molar value.

Experiments:
[1] = Metabolic stability in human liver microsomes with NADPH; assay type: in vitro ADME; conditions: pH 7.4, 1 μM compound, read-out: percent remaining
Protocol: One potential liability when using chemical probes in vivo is lack of metabolic stability which structurally inactivates the compound before it can reach its molecular target. […] Percent of drug remaining over time was determined by liquid chromatography–tandem mass spectrometry analysis (LC/MS/MS).
Metabolic stability assay was conducted in mouse or human liver microsomes as we have described previously with minor modifications. Briefly, the reaction was carried out using potassium phosphate buffer (100 mM, pH 7.4), in the presence of an NADPH regenerating system (compound final concentration was 1 μM; 0.2 mg/mL microsomes). Compound disappearance was monitored over time using a liquid chromatography and tandem mass spectrometry (LC/MS/MS) method. Chromatographic analysis was performed using an Accela ultra high-performance system consisting of an analytical pump and an autosampler coupled with a TSQ Vantage mass spectrometer (Thermo Fisher Scientific Inc., Waltham, MA). […] The mobile phase consisted of 0.1% formic acid in acetonitrile and 0.1% formic acid in water with gradient elution.

[2] = biological target: alkaline phosphatase; assay: Counter assay without nSMase2 and SM, phosphorylcholine as substrate (enzyme-coupled detection reactions); assay type: biochemical; conditions: no nSMase2, no SM; phosphorylcholine 2 μM as substrate
[3] = biological target: T1, human nSMase2 (Homo sapiens, UniProt Q9NY59); assay: Mode of inhibition: rate vs SM concentration at several DPTIP concentrations (Michaelis-Menten fits); assay type: biochemical; set-up: Full length human nSMase2 cDNA with a C-terminal Flag tag; host or cells: HEK293 cells, G418-selected; crude sonicated cell lysate used as the enzyme preparation; conditions: with respect to SM
T1 sequence (Q9NY59 1-655): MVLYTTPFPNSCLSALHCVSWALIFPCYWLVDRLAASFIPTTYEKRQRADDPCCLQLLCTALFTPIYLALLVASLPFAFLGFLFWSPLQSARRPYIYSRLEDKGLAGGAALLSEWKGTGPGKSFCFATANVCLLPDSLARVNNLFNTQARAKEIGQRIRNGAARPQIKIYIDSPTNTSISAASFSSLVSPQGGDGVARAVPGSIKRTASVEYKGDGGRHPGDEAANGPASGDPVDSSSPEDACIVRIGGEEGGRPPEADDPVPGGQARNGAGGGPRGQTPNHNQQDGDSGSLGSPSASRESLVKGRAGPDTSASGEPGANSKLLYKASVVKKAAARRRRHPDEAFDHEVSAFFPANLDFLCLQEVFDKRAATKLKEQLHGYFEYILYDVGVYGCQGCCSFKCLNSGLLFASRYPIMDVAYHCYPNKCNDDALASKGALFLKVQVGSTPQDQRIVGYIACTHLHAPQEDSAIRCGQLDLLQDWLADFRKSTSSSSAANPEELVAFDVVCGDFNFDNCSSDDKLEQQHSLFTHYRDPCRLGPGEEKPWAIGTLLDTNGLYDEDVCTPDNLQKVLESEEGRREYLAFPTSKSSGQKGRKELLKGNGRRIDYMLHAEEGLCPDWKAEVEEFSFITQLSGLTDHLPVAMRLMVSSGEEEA

[4] = test system: GFAP-GFP mice; assay: Striatal IL-1β brain inflammation model: GFP-labeled astrocyte-derived EVs in plasma; assay type: in vivo, mouse; conditions: 10 mg/kg IP 0.5 h before IL-1β; 2 h post IL-1β
Protocol: As we have previously shown[11],[18], striatal injection of IL-1β in mice expressing GFP-GFAP in astroglia triggers a release of GFP-labelled EVs that rapidly enter into plasma, resulting in cytokine upregulation in liver and peripheral immune cell migration into brain[11]. […] There were two groups of mice: the first group was sacrificed 2 h after IL-1β administration by heart puncture, and GFP-labeled circulating EVs were measured with liver cytokines. […] Counting of astrocyte-released EV (GFP+) from blood and liver cytokine analysis was conducted by single injection of DPTIP. Although release of EVs from astrocytes can be initiated immediately after intracranial injection of IL-1β, infiltration of neutrophils in brain parenchyma occurred 12h-24h after the IL-1β injection. […] Western analysis using the isolated exosomal fraction confirmed the presence of CD63 (transmembrane protein), TSG101 (cytosolic protein) and Flotilin-1 (lipid raft associated protein), commonly used EV markers[19],[20]. The GFP signal was an indication that these EVs originated in brain[11] while lack of mitofilin and α-actinin signals indicated the vesicles were not of mitochondrial[21] or cytoskeletal[22] origin respectively (Fig. 6B).
Compounds were given 0.5 h before IL-1β dosing. One group of mice was sacrificed 2 h after IL-1β administration to determine effects of the various treatments on extracellular vesicles (EVs) releases from brain and liver cytokine analysis. […] (C) Liver cytokine levels under different treatments as measured by qRT-PCR of RNA isolated from fresh frozen liver tissue. Samples were analyzed in triplicate. **p < 0.01 and *p < 0.05 compared to saline control; ^##p < 0.01 and ^#p < 0.05 compared to IL1-β group. (D) Neutrophil levels in brain as measured by immunohistochemistry using coronal brain sections and Ly6b antibody. (E) Quantitation of (D); **p < 0.01 compared to saline control; ^##p < 0.01 compared to IL1-β group. […]

## COc1cc(-c2nc(-c3cccs3)c(-c3ccccc3)[nH]2)cc(OC)c1O [DPTIP, 2,6-Dimethoxy-4-(5-Phenyl-4-Thiophen-2-yl-1H-Imidazol-2-yl)-Phenol]
[1]
  remaining at 1 h, 1 μM: 100%
[2]
  pIC50: < 4.00
[3]
  mode of inhibition: noncompetitive
[4]
  reduction of number of astrocyte-derived EVs: 51 ± 13%
